Target: T1, galectin-3 (Homo sapiens, UniProt P17931)
T1 construct: purchased IBL IBATGPO414
Test: Galectin-3 Activity - ELISA Assay (inhibition of binding of galectin-3 to a Galβ1-3GlcNAc carbohydrate structure)
Conditions: competitive ELISA; galectin-3 binding to immobilized Galβ1-3GlcNAcβ1-3Galβ1-4GlcNAcβ-PAA-biotin polymer; A450 readout; read-out: IC50 (μM), Galectin-3 Antagonist Activity
Method: Galectin-3 antagonists were evaluated for their ability to inhibit binding of galectin-3 to a Galβ1-3GlcNAc carbohydrate structure. The detailed protocol was as follows. A 1 ug/mL suspension of a Galβ1-3GlcNAcβ1-3Galβ1-4GlcNAcβ-PAA-biotin polymer (Glycotech, catalog number 01-096) was prepared. A 100 uL aliquot of the polymer was added to the wells of a 96-well streptavidin-coated plate (R&D Systems, catalog number CP004). A 100 uL aliquot of 1× Tris Buffered Saline (TBS, Sigma, catalog number T5912-10X) was added to control wells. The polymer was allowed to bind to the streptavidin-coated wells for 1.5 hours at room temperature. The contents of the wells were discarded and 200 uL of 1×TBS containing 1% bovine serum albumin (BSA) was added to each well as a blocking reagent and the plate was kept at room temperature for 30 minutes. The wells were washed three times with 1×TBS containing 0.1% BSA. A serial dilution of test compounds was prepared in a separate V-bottom plate (Corning, catalog number 3897). A 75 uL aliquot of the highest concentration of the compound to be tested was added to the first well in a column of the V-bottom plate then 15 ul were serially transferred into 60 uL 1×TBS through the remaining wells in the column to generate a 1 to 5 serial dilution. A 60 uL aliquot of 2 ug/mL galectin-3 (IBL, catalog number IBATGPO414) was added to each well in the V-bottom plate. A 100 uL aliquot of the galectin-3/test compound mixture was transferred from the V-bottom plate into the assay plate containing the Galβ1-3GlcNAc polymer. Four sets of control wells in the assay plate were prepared in duplicate containing 1) both Galβ1-3GlcNAc polymer and galectin-3, 2) neither the polymer nor galectin-3, 3) galectin-3 only, no polymer, or 4) polymer only, no galectin-3. The plate was gently rocked for 1.5 hours at room temperature. The wells were washed four times with TBS/0.1% BSA. A 100 uL aliquot of anti-galectin-3 antibody conjugated to horse radish peroxidase (R&D Systems, from DGAL30 kit) was added to each well and the plate was kept at room temperature for 1 hour. The wells were washed four times with TBS/0.1% BSA. A 100 uL aliquot of TMB substrate solution was added to each well. The TMB substrate solution was prepared by making a 1:1 mixture of TMB Peroxidase Substrate (KPL, catalog number 5120-0048) and Peroxidase Substrate Solution B (KPL, catalog number 5120-0037). The plate was kept at room temperature for 10 to 20 minutes. The color development was stopped by adding 100 uL 10% phosphoric acid (RICCA Chemical Co., catalog number 5850-16). The absorbance at 450 nm (A450) was measured using a FlexStation 3 plate reader (Molecular Devices). Plots of A450 versus test compound concentration and IC50 determinations were made using GraphPad Prism 6.

T1 sequence (P17931 whole entry): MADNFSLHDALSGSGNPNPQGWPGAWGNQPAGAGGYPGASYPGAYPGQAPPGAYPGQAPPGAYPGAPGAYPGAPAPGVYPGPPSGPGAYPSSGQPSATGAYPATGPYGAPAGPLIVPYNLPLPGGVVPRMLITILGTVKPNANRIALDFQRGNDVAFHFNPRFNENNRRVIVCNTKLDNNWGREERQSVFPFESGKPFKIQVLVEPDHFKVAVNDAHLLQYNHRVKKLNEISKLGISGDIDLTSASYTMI

In order of rising IC50:
1. CC(=O)[C@@H](OCc1ccc(Br)cc1)[C@@H]1OC(CO)[C@H](O)C(n2cc(-c3cc(F)c(F)c(F)c3)nn2)C1O (stereo partly drawn) [Compound 16]  0.32 µM
2. CCC(=O)[C@@H](OCc1ccc(Cl)cc1)[C@@H]1OC(CO)[C@H](O)C(n2cc(-c3cc(F)c(F)c(F)c3)nn2)C1O (stereo partly drawn) [Compound 74]  0.32 µM
3. [2H]C([2H])([2H])OC1C(n2cc(-c3cc(F)c(F)c(F)c3)nn2)[C@@H](O)C(CO)O[C@H]1[C@H](OCc1ccc(Br)cc1)C(=O)c1ccsc1 (stereo partly drawn) [Compound 80]  0.44 µM
4. [2H]C([2H])([2H])OC1C(n2cc(-c3cc(F)c(F)c(F)c3)nn2)[C@@H](O)C(CO)O[C@H]1[C@H](OCc1ccc(Br)cc1)C(=O)C([2H])([2H])C([2H])([2H])[2H] (stereo partly drawn) [Compound 78]  0.5 µM
5. COC1C(n2cc(-c3cc(F)c(F)c(F)c3)nn2)[C@@H](O)C(CO)O[C@H]1[C@H](OCc1ccc(Cl)cc1)[C@@H](C)O (stereo partly drawn) [Compound 41]  0.59 µM
6. COC1C(n2cc(-c3cc(F)c(F)c(F)c3)nn2)[C@@H](O)C(CO)O[C@H]1[C@H](OCc1ccc(Cl)cc1)C(=O)CC(C)C (stereo partly drawn) [Compound 33]  0.63 µM
7. [2H]C([2H])([2H])OC1C(n2cc(-c3cc(F)c(F)c(F)c3)nn2)[C@@H](O)C(CO)O[C@H]1[C@H](OCc1ccc(Cl)cc1)C(=O)C([2H])([2H])C([2H])([2H])[2H] (stereo partly drawn) [Compound 76]  0.66 µM
8. CCC(=O)[C@@H](OCc1ccc(Cl)cc1)[C@@H]1OC(CO)[C@H](O)C(n2cc(-c3cc(F)c(F)c(F)c3)nn2)C1OC (stereo partly drawn) [Compound 35]  0.75 µM
9. COC1C(n2cc(-c3cc(F)c(F)c(F)c3)nn2)[C@@H](O)C(CO)O[C@H]1[C@H](OCc1ccc(Cl)cc1)C(C)=O (stereo partly drawn) [Compound 32]  0.82 µM
10. COC1C(n2cc(-c3cc(F)c(F)c(F)c3)nn2)[C@@H](O)C(CO)O[C@H]1[C@H](OCc1ccc(Cl)cc1)C(=O)c1cccs1 (stereo partly drawn) [Compound 34]  0.84 µM
11. [2H]C([2H])([2H])OC1C(n2cc(-c3cc(F)c(F)c(F)c3)nn2)[C@@H](O)C(CO)O[C@H]1[C@H](OCc1ccc(Cl)cc1)C(C)=O (stereo partly drawn) [Compound 77]  1.09 µM
12. COC1C(n2cc(-c3cc(F)c(F)c(F)c3)nn2)[C@@H](O)C(CO)O[C@H]1[C@H](OCc1ccc(Cl)cc1)C(=O)C1CC1 (stereo partly drawn) [Compound 75]  1.18 µM
13. [2H]C([2H])([2H])OC1C(n2cc(-c3cc(F)c(F)c(F)c3)nn2)[C@@H](O)C(CO)O[C@H]1[C@H](OCc1ccc(Br)cc1)C(=O)c1ccc(F)cc1 (stereo partly drawn) [Compound 79]  1.76 µM
14. [2H]C([2H])([2H])OC1C(n2cc(-c3cc(F)c(F)c(F)c3)nn2)[C@@H](O)C(CO)O[C@H]1[C@H](OCc1ccc(Br)cc1)C(=O)c1ccc(Cl)s1 (stereo partly drawn) [Compound 81]  3.21 µM
15. COC1C(n2cc(-c3cc(F)c(F)c(F)c3)nn2)[C@@H](O)C(CO)O[C@H]1[C@H](OCc1ccc(C(F)(F)F)nc1)C(C)(C)O (stereo partly drawn) [Compound 44]  57 µM

Reference: US20230091472A1, “GALECTIN-3 INHIBITING C-GLYCOSIDE KETONES, ETHERS, AND ALCOHOLS” (GLYCOMIMETICS, INC., priority 2019, published 2023)
